Source: patent publication US7291710B2, “Detection of spectrin and spectrin proteolytic cleavage products in assessing nerve cell damage” (priority 2002, dated 2007)
Where a SMILES comes first, the peptide text is derived from it.

How the values were obtained:
[1] = system: calpain and caspase-3 activation in septo-hippocampal cultures; assay: Treatment of septo-hippocampal cultures with calpain, caspase and protein synthesis inhibitors; type: cell-based, rat; conditions: for antagonism of calpain and caspase-3 activation accompanying staurosporine-induced apoptosis: 37.5 μM CalpInh-II, 30 μM Z-D-DCB, pretreatment 1 hour
Experimental: (§1) Septo-hippocampal cultures. Eighteen day old rat fetuses were removed from deeply anesthetized dams. Septi and hippocampi were dissected in a dissection buffer (HBSS, with 4.2 mM bicarbonate, 1 mM pyruvate, 20 mM HEPES, 3 mg/ml BSA, pH 7.25). After rinsing in DMEM-DM, tissue was dissociated by trituration through the narrow pore of a flame-constricted Pasteur pipette. Dissociated cells were resuspended in DMEM with 10% fetal calf serum (DMEM-10S) and plated on 24-well poly-L-lysine coated plastic culture plates or 12 mm of German glass (Erie Scientific Co.) at a density of 4.36×10^5 cells/mL. Cultures were maintained in a humidified incubator in an atmosphere of 5% CO2 at 37° C. After 5 days of culture, the media was changed to DMEM-DM. […] Subsequent media changes were carried out three times a week. By day 10 in vitro, astrocytes formed a confluent monolayer beneath morphologically mature neurons.
Treatment of septo-hippocampal cultures with calpain, caspase, and protein synthesis inhibitors. Sister cultures were pretreated with either 37.5 μM calpain inhibitor-II (CalpInh-II) (Boehringer Mannheim), 30 μM of the pan-caspase inhibitor Z-D-DCB (obtained from Biochem), or 1 μg/mL of the protein synthesis inhibitor, cycloheximide (Sigma), […] The inhibitor concentrations provide optimal inhibition of calpains, caspase-3 (CPP32) proteases, and protein synthesis. […] This investigation also employed degradation of αII-spectrin to provide independent confirmation that the concentrations of CalpInh-II and Z-D-DCB used in this study to inhibit calpains and caspase-3 proteases. […] Following each experiment, cells were fixed for staining, or protein or DNA extraction was performed.
SDS-Polyacrylamide Gel electrophoresis and immunoblotting. At the end of an experiment, cells were harvested from 5 identical culture wells and collected in 15 ml centrifuge tubes and centrifuged at 3000 g for 5 min. The medium was removed and the pellet cells were rinsed with 1× DPBS. […]

[2] = system: septo-hippocampal cultures; assay: αII-spectrin immunoblot of septo-hippocampal cultures after maitotoxin or staurosporine insult; type: cell-based, rat; conditions: maitotoxin 30 min, 1 hr; staurosporine 3 hr; anti-α-spectrin antibody FG 6090
Experimental: as §1, with “By day 10 in vitro, astrocytes formed a confluent monolayer beneath morphologically mature neurons.” left out
Pharmacological treatment of septo-hippocampal cells with maitotoxin. Ten day old septo-hippocampal cultures were challenged with 0.01-2.0 nM of maitotoxin (Wako Products, Richmond, Va., Cat.# 131-10731) in DMEM-DM and cell viability was monitored at various post-injury time points. […]
Treatment of cultures with staurosporine. Ten day old septo-hippocampal cultures were challenged with 0.05-2.0 μM of staurosporine (Calbiochem, La Jolla, Calif., Cat. # 569397) in DMEM-DM and cell viability was monitored at various post-injury time points. […]

SMILES | antagonism of calpain and caspase-3 activation accompanying staurosporine-induced apoptosis [1] | type of cell death and protease-specific SBDP detected [2] | also measured
CSCC[C@@H](C=O)NC(=O)[C@H](CC(C)C)NC(=O)[C@H](CC(C)C)NC(C)=O [CalpInh-II, N-acetyl-Leu-Leu-methioninal] (Ac-Leu-Leu-Met-aldehyde) | could antagonize calpain and caspase-3 activation |  | 
O=C(O)CC(NC(=O)OCc1ccccc1)C(=O)COC(=O)c1c(Cl)cccc1Cl [Z-D-DCB, carbobenzoxy-Asp-CH2—OC (O)-2-6-dichlorobenzene] | could antagonize calpain and caspase-3 activation |  | 
C[C@@H]1C[C@@H]([C@H](O)CC2CC(=O)NC(=O)C2)C(=O)[C@@H](C)C1 [cycloheximide] |  |  | effect on calpain and caspase activation and apoptotic cell death ([1]; 1 μg/mL cycloheximide): blocked calpain and caspase activation as well as apoptotic cell death
C=CC[C@H](C)[C@H](C)C[C@@H](O)[C@H](O)[C@@H]1CC[C@@]2(C)O[C@@]3(C)C[C@@]4(C)O[C@H]5/C=C\C[C@H]6O[C@H]7C[C@H]8O[C@H]9C[C@@]%10(C)O[C@@](C)([C@@H]%11CC[C@H]%12O[C@@]%13(C)C[C@H]%14O[C@@]%15(C)C[C@H]%16O[C@@]%17(C)C[C@@H](O)[C@H]([C@@H]%18O[C@H]%19[C@H](O)[C@@H](O)[C@H](C[C@H](O)C[C@@H](O)[C@@H]%20O[C@H]%21[C@H](O)[C@@H](O)[C@H]([C@@H]%22O[C@@H]%23[C@H](O)[C@H]%24O[C@H]%25C[C@H]%26O[C@@H](C[C@H](O)[C@@H](O)[C@H]%27O[C@H]%28[C@H](O)[C@H]%29O[C@H]%30C[C@H]%31O[C@H]%32[C@@H](O)[C@@H](O)[C@H]([C@H](C)[C@H](O)[C@H](C)CC[C@H](OS(=O)(=O)O)[C@H](O)[C@H](C)C[C@@H](O)C(=C)/C(C)=C/CO)O[C@@H]%32[C@H](O)C[C@]%31(C)O[C@@H]%30C[C@]%29(C)O[C@@H]%28C[C@H]%27O)[C@H](OS(=O)(=O)O)[C@H](O)[C@@H]%26O[C@@H]%25C[C@@H]%24O[C@H]%23[C@H](O)[C@H]%22O)O[C@H]%21C[C@H]%20O)O[C@H]%19C[C@H]%18O)O[C@@H]%17[C@H](O)[C@]%16(C)O[C@@H]%15CC[C@]%14(C)O[C@@H]%13C[C@@H]%12O%11)[C@H](O)C[C@@H]%10O[C@]9(C)CC[C@]8(C)O[C@]7(C)C[C@@H]6O[C@@H]5C[C@@H]4O[C@@H]3C[C@@H]2O1 [maitotoxin] |  | necrotic cell death mediated by calpain (145 kDa SBDP) but not caspase-3 (120 kDa SBDP) | 
CN[C@@H]1C[C@H]2O[C@@](C)([C@@H]1OC)n1c3ccccc3c3c4c(c5c6ccccc6n2c5c31)C(=O)NC4 [staurosporine] |  | apoptotic cell death mediated by caspase-3 (120 kDa SBDP) but not by calpain (145 kDa SBDP) | 
